Results from the supplement of paper PMC5752671.

How the values were obtained:
EOL-1 = experiment: IC50 (cell viability) (log10 M); conditions: 4 days
Summary of the method: (§1)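 Fourteen leukemia cell lines were seeded on 384-well plates coated with extracellular matrix, and drugs were added robotically the following day in duplicate at eight concentrations covering 4–5 logs within 10^–12–10^–4 M, with the range tailored to each drug. After 4 days, viability was read with CellTiter-Glo. Each table value is the concentration, in log10 M, at which a fitted four-parameter curve crosses 50% viability, or the highest tested concentration where that crossing is not reached. These values are reported as IC50.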

HL60 = experiment: IC50 (cell viability) (log10 M); conditions: 4 days
Summary of the method: as §1

KASUMI1 = experiment: IC50 (cell viability) (log10 M); conditions: 4 days
Summary of the method: as §1

KG1 = experiment: IC50 (cell viability) (log10 M); conditions: 4 days
Summary of the method: as §1

MOLM/13 = experiment: IC50 (cell viability) (log10 M); conditions: 4 days
Summary of the method: as §1

MOLM/16 [1] = experiment: IC50 (cell viability) (log10 M); conditions: 4 days
Summary of the method: as §1

MV4.11 = experiment: IC50 (cell viability) (log10 M); conditions: 4 days
Summary of the method: as §1

NB4 = experiment: IC50 (cell viability) (log10 M); conditions: 4 days
Summary of the method: as §1

OCI-AML2 = experiment: IC50 (cell viability) (log10 M); conditions: 4 days
Summary of the method: as §1

OCI-AML3 [2] = experiment: IC50 (cell viability) (log10 M); conditions: 4 days
Summary of the method: as §1

PL-21 [3] = experiment: IC50 (cell viability) (log10 M); conditions: 4 days
Summary of the method: as §1

SKM1 [4] = experiment: IC50 (cell viability) (log10 M); conditions: 4 days
Summary of the method: as §1

THP-1 = experiment: IC50 (cell viability) (log10 M); conditions: 4 days
Summary of the method: as §1

U937 = experiment: IC50 (cell viability) (log10 M); conditions: 4 days
Summary of the method: as §1

MOLM/16 [5] = experiment: area under dose-response curve (cell viability) (AUC (arbitrary, % viability x log concentration)); higher = less sensitive (more viable); conditions: 4 days
Summary of the method: (§2)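 After overnight plating on extracellular-matrix-coated 384-well plates, fourteen leukemia cell lines received drugs by robot in duplicate at eight per-drug concentrations spanning 4–5 logs within 10^–12–10^–4 M. CellTiter-Glo was used to read viability 4 days later, and a four-parameter sigmoid was fitted to the mean of the duplicates. The reported figure is the area under this curve.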

OCI-AML3 [6] = experiment: as above; conditions: 4 days
Summary of the method: as §2

PL-21 [7] = experiment: as above; conditions: 4 days
Summary of the method: as §2

SKM1 [8] = experiment: as above; conditions: 4 days
Summary of the method: as §2

AML.017 = primary AML patient cells; experiment: area under dose-response curve (cell viability), primary AML patient cells (AUC (arbitrary, % viability x log concentration; ComBat batch-corrected)); higher = less sensitive (more viable); conditions: 4 days; sample type: primary AML patient cells
Summary of the method: (§3)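 Cryopreserved primary AML cells were thawed with DNase, cultured 48 h in IMDM with horse serum, fetal calf serum and low stem cell factor, then blast-enriched. They were plated at 5000 cells/well on extracellular-matrix-coated 384-well plates, with drugs added next day at eight concentrations within 10^–12–10^–4 M, in duplicate. CellTiter-Glo viability was read after 4 days. Area under fitted four-parameter curves was ComBat batch-corrected.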

AML.076 = primary AML patient cells; experiment: as above; conditions: 4 days; sample type: primary AML patient cells
Summary of the method: as §3

Row | SMILES | IC50 (log10 M) (EOL-1) | IC50 (log10 M) (HL60) | IC50 (log10 M) (KASUMI1) | IC50 (log10 M) (KG1) | IC50 (log10 M) (MOLM/13) | IC50 (log10 M) (MOLM/16 [1]) | IC50 (log10 M) (MV4.11) | IC50 (log10 M) (NB4) | IC50 (log10 M) (OCI-AML2) | IC50 (log10 M) (OCI-AML3 [2]) | IC50 (log10 M) (PL-21 [3]) | IC50 (log10 M) (SKM1 [4]) | IC50 (log10 M) (THP-1) | IC50 (log10 M) (U937) | area under dose-response curve (MOLM/16 [5]) | area under dose-response curve (OCI-AML3 [6]) | area under dose-response curve (PL-21 [7]) | area under dose-response curve (SKM1 [8]) | area under dose-response curve (AML.017) | area under dose-response curve (AML.076)
1 | O=C(CCCCCCC(=O)Nc1ccccc1)NO [Vorinostat] | -6.51 | -5.94 | -6.07 | -6.01 | -5.96 | -6.51 | -6.48 | -6.22 | -6.33 | -5.87 | -5.94 | -5.97 | -5.88 | -6.13 | 463 | 530 | 496 | 584 | 559 | 531
2 | COCC[n+]1c2c(n(Cc3cnccn3)c1C)C(=O)c1ccccc1C2=O [YM-155] | < -8.34 | < -8.34 | < -8.34 | -7.71 | < -8.34 | -8.13 | -8.32 | < -8.34 | < -8.34 | < -8.34 | -7.78 | < -8.34 | -8.33 | < -8.34 | 281 | 86.8 | 311 | 69.8 | 655 | 481
3 | FC(F)c1nc2ccccc2n1-c1nc(N2CCOCC2)nc(N2CCOCC2)n1 [ZSTK-474] | -6.23 | -5.46 | -6.2 | > -5 | > -5 | -5.92 | > -5 | > -5 | > -5 | -5.21 | -5.57 | > -5 | > -5 | -5.8 | 515 | 584 | 533 | 563 | 622 | 667
